Results reported in ChEMBL document CHEMBL4418492, “Myc modulators and uses thereof” (2018).
pIC50: −log10 of the molar value.

Key:
[1] = biological target: T1, Myc proto-oncogene protein (Homo sapiens, UniProt P01106); experiment: Inhibition of Myc (unknown origin) expressed in HEK293T cells incubated for 16 hrs by firefly/renilla luciferase reporter gene assay; format: cell-based
NCI-H1975 = experiment: Cytotoxicity against human NCI-H1975 cells assessed as decrease in cell viability incubated for 72 hrs by CellTiter-Glo assay; format: functional, cell-based; conditions: NCI-H1975, 72 h
NAMALVA = experiment: Cytotoxicity against human NAMALWA cells assessed as decrease in cell viability incubated for 72 hrs by CellTiter-Glo assay; format: functional, cell-based
Lymphoma cell line = experiment: Cytotoxicity against mouse E-mu-Myc lymphoma cells assessed as decrease in cell viability incubated for 72 hrs by CellTiter-Glo assay; format: functional, cell-based
[2] = Cytotoxicity against human SNUC5 cells assessed as decrease in cell viability incubated for 72 hrs by CellTiter-Glo assay; format: functional, cell-based
[3] = Cytotoxicity against human KLP1 cells assessed as decrease in cell viability incubated for 72 hrs by CellTiter-Glo assay; format: functional, cell-based
HeLa = experiment: Cytotoxicity against human HeLa cells assessed as decrease in cell viability incubated for 72 hrs by CellTiter-Glo assay; format: functional, cell-based
[4] = biological target: T1, Myc proto-oncogene protein; experiment: Binding affinity to Myc in cell lysates (unknown origin) assessed as c-Myc levels at 1 uM incubated using compound 19 beads by Western blotting based pull down assay relative to control; format: subcellular; conditions: Lysate
[5] = biological target: T1, Myc proto-oncogene protein; experiment: Binding affinity to Myc in cell lysates (unknown origin) assessed as c-Myc levels at 5 uM incubated using compound 19 beads by Western blotting based pull down assay relative to control; format: subcellular; conditions: Lysate
[6] = biological target: T1, Myc proto-oncogene protein; experiment: Binding affinity to Myc in cell lysates (unknown origin) assessed as c-Myc levels at 5 uM incubated using compound 55 beads by Western blotting based pull down assay relative to control; format: subcellular; conditions: Lysate

T1 sequence (P01106 whole entry): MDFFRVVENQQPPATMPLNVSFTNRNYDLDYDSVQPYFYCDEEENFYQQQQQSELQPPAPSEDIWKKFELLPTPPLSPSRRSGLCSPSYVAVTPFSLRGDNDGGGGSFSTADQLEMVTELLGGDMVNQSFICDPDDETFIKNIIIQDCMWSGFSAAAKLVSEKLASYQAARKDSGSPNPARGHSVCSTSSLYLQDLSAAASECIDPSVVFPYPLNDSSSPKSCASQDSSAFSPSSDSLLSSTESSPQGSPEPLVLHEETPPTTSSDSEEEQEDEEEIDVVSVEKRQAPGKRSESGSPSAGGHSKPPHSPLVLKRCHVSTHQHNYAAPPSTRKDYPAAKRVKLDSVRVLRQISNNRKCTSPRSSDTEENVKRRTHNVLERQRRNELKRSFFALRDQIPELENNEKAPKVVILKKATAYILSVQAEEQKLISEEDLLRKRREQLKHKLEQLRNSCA

Question: For `COC(=O)c1ccc(Sc2nc3ccccc3[nH]2)o1`, which IC50 [1] is on record?
Answer: Its IC50 is “Not Active”.

Question: Which IC50 [1] does the source give for `O=C(c1ccc(Sc2nc3ccccc3[nH]2)o1)N1CCOCC1` here?
Answer: Its IC50 is “Not Active”.

Question: Which results are given for `CC(C)N1C(=O)S/C(=C\c2ccc(-c3nc4ccccc4[nH]3)o2)C1=O`?
Answer: pIC50 (NCI-H1975): 4.34; pIC50 (NAMALVA): 4.70; pIC50 (Lymphoma cell line): < 4.30

Question: Which IC50 [1] does the source give for `O=C1NC(=O)C(=Cc2ccc(Sc3nc4ccccc4[nH]3)o2)C(=O)N1` here?
Answer: Its IC50 is “Not Active”.

Question: What does the source list for `CC(C)N1C(=O)S/C(=C\c2ccc(Sc3nc4ccccc4[nH]3)o2)C1=O`?
Answer: pIC50 (NCI-H1975): 4.60 to 5.57; pIC50 [2]: 4.93; pIC50 (NAMALVA): 4.67 to 4.76; pIC50 [3]: 5.33; pIC50 (HeLa): 5.48; Activity [4]: 91%; Activity [5]: 73 to 84%; Activity [6]: 52%

Question: Which IC50 [1] does the source give for `O=C(O)c1ccc(Sc2nc3ccccc3[nH]2)o1` here?
Answer: The IC50 was “Not Active”.

Question: With `O=C(O)CN1C(=O)S/C(=C\c2ccc(Sc3nc4ccccc4[nH]3)o2)C1=O` as the compound, how does the IC50 [1] read?
Answer: Its IC50 is “Not Active”.

Question: With `O=C(CCCC[C@@H]1SC[C@@H]2NC(=O)N[C@@H]21)NCCCN1C(=O)S/C(=C\c2ccc(Sc3nc4ccccc4[nH]3)o2)C1=O` as the compound, how does the pIC50 (NCI-H1975) read?
Answer: The pIC50 was under 4.30.
